Experimental data taken from patent US8222297B2, “Aniline or phenol mustards linked to DNA-affinic molecules or water-soluble aromatic rings and their use as cancer therapeutic agents” (Academia Sinica, priority 2007, dated 2012).
Like-named read-outs stand apart in the source and are kept apart here.

Experiments:
[1] = test system: CCRF-CEM human lymphoblastic leukemia cells; test: In vitro cytotoxicity, XTT assay
CCRF-CEM/Taxol = test: In vitro cytotoxicity, XTT assay, taxol-resistant subline; conditions: for IC50: Homo sapiens, CCRF-CEM, 72 h, read-out: IC50 CCRF-CEM/Taxol, XTT assay, 72-hr incubation; for fold of cross-resistant, CCRF-CEM/Taxol vs IC50 of parent cell line: number in brackets
[2] = test system: human mammary carcinoma MX-1 xenograft; test: Antitumor therapeutic effect in nude mice bearing MX-1 xenograft; format: in vivo; conditions: for Tumor remission achieved: doses and schedules as in Table 2 (30-150 mg/kg, i.v.); for log cell kill: estimated by Eq. 4 from remission time; for Duration complete remission maintained without relapse: one cycle 5-dose-treatment, 3 out of 3 mice
Description: (§1) Athymic nude mice bearing the nu/nu gene were used for human breast tumor MX-1 xenograft (FIGS. 3 and 4) and human brain glioma U87 GM xenograft (FIG. 5). Nude mice were obtained from National Cancer Institute, Frederick, Md. Male mice 6 weeks old or older weighing 22 g or more were used for experiments with subcutaneous tumor inoculation as described previously.^62 Drug was administrated via the tail vein by iv injection. Tumor volumes were assessed by measuring length×width×height (or width) by using caliper. Vehicle used was 20 μL DMSO in 180 μL saline. All animal studies were conducted in accordance with the guidelines of the U.S. National Institutes of Health Guide for the Care and Use of Animals and the protocol approved by the Institutional Animal Care and Use Committee.
(§2) Animals. Athymic nude mice bearing the nu/nu gene were obtained from NCI, Frederick, Md. and used for all human tumor xenografts. Male nude mice 6 weeks or older weighing 20-24 g or more were used. Compounds were administered via the tail vein for i.v. injection or infusion as described previously.^59 A typical formulation for chemotherapeutic studies for each drug was dissolved in DSMO to make a 25 mg/ml fresh solution, 0.4 ml of this solution was mixed with 0.3 ml of Tween 80, plus 1.3 ml to make 2 ml of 5 mg/ml solution. Bolus injection volume was 0.1-0.2 ml per mouse. Tumor volume was assessed by measuring length×width×height (or width) by using a caliper. For tumor-bearing nude mice during the course of the experiment, the body weight refers to total weight minus the weight of the tumor. All animal studies were conducted in accordance with the guidelines for the National Institute of Health Guide for the Care and Use of Animals and the protocol approved by the Institutional Animal Care and Use Committee.
The therapeutic effects of a drug against human tumor xenografts in nude mice, under the optimal therapeutic conditions but without any lethality due to drug toxicity, the following degrees of therapeutic effects are defined and calculated by the following formula:
[formula] • where T0 is the initial tumor size (in mm^3) at beginning of drug treatment; • Tc is tumor size of untreated control group on a given date; and • Tx is tumor size of the drug treated group on a given date.
[formula] • Where T0 and Tx are as specified as above. • Tumor disappearance (complete remission or CR) is defined by the effect where [Tx=0] for a period of time (in days) for a proportion of animals (NCR/N), where N is the total number of animals in the group, and NCR is the number of mice in the group that achieved CR. • Tumor relapse is quantitatively calculated by [The Day tumor relapsed(Drelp)−The Day CR achieved(DCR)] (Eq. 3) • for a proportion of animals (Nrelp/N) where N is the total number of animals in the group, and Nrelp is the number of the mice in the group that relapsed. • The log cell kill (LCK) of the tumor tissue after a given chemotherapy that reached CR is estimated by: LCK=log [2^(Tumor remission in days/Tumor doubling time in days)] (Eq. 4)

MX-1 cells = test: Inhibition of biosynthesis of DNA, RNA and protein (tracer incorporation); format: cell-based, human; conditions: for degrees of inhibiting biosynthesis of DNA and RNA, maximized: [3H]thymidine / [3H]adenosine incorporation; for persistence of inhibition of biosynthesis: printed 'over 6-24 hrs'
Description: [^3H]Thymidine (1 uCi), [^3H]adenosine (1 μCi) and [^3H]leucine (2 μCi) were used as the tracers for incorporation into DNA, RNA and protein, respectively. […] Incubation was terminated at each time points as indicated. For details of the method see Chou et al. Cancer Research 43: 3074-3079, 1983. […] The half-maximal inhibition was reached within 15-30 min and persisted for over 6-24 hrs.

[3] = test system: Human colon carcinoma HCT-116 cells; test: In vitro cytotoxicity, SRB assay
[4] = test system: Human mammary carcinoma (MX-1) tumor cells; test: In vitro cytotoxicity, SRB assay
[5] = test system: human glioma U87 GM s.c. xenograft; test: Therapeutic effect in nude mice bearing U87 glioma xenograft; format: in vivo
Description: as §1
The therapeutic effects of N-mustard compounds, BO-1049, 1051 and 1055, against human glioma U87 GM s.c. xenograft in nude mice were given in FIG. 5, A and B. U87 glioma is known to be refractory tumor that can not be effectively treated with cell-cycle specific anti-tumor drugs such as taxol, epothilones, or arabinosylcytosine. However, cell-cycle non-specific drugs such as alkylating agent, cyclophosphamide or BCNU, yields better therapeutic results. […] However, upon 6 days of recession of treatment with BO-1049 or BO-1055, the tumor began to regrow.
as §2

[6] = Homo sapiens, CCRF-CEM, 72 h, read-out: IC50 CCRF-CEM, XTT assay, 72-hr incubation
[7] = Homo sapiens, 72 h, read-out: IC50 MX-1, SRB assay, 72-hr incubation
[8] = read-out: IC50 CCRF-CEM, XTT assay, 72-hr incubation

In the case of `O=C(Nc1ccc(N(CCCl)CCCl)cc1)Nc1c2ccccc2nc2ccccc12` [BO-1034, 1-Acridin-9-yl-3{4-[bis(2-chloroethyl)amino]phenyl}urea], the IC50 [1, 6] is reported as 198 nM, the IC50 (CCRF-CEM/Taxol) is reported as 418 nM and the “fold of cross-resistant, CCRF-CEM/Taxol vs IC50 of parent cell line” value (from here on “fold of cross-resistant, CCRF-CEM/Taxol”) (CCRF-CEM/Taxol) is reported as 2.1 x.
With `O=C(Nc1ccc(N(CCCl)CCCl)cc1)Nc1cc(CO)cc(Nc2c3ccccc3nc3ccccc23)c1` [BO-1037, 1-[3-(Acridin-9-ylamino)-5-hydroxymethylphenyl]-3-{4-[bis(2-chloroethyl)amino]phenyl}-urea] the “Tumor remission achieved” value [2] was “CR in parts of the mice” and the IC50 [1, 6] was 54.5 nM.
In the case of `Cc1cc(NC(=O)Nc2ccc(N(CCCl)CCCl)cc2)c2ccccc2n1` [BO-1038, 1-{4-[Bis(2-chloroethyl)amino]phenyl}-3-(2-methyl-quinolin-4-yl)urea], the “time to half-maximal inhibition of biosynthesis” value (MX-1 cells; 10 μM) is reported as 15 to 30 min, the “degrees of inhibiting biosynthesis of DNA and RNA, maximized” value (MX-1 cells; 10 μM) is reported as 50-80% and the “persistence of inhibition of biosynthesis” value (MX-1 cells; 10 μM) is reported as 6 to 24 h. The “Tumor remission achieved” value [2] was “complete tumor remission”, the log cell kill [2] was greater than 4.1 and the “Duration complete remission maintained without relapse” value [2] was “over 70 days”. The IC50 ([3]; Homo sapiens, HCT-116, 72 h, read-out: IC50 HCT-116, SRB assay, 72-hr incubation) was 1240 nM and the “fold of cross-resistant, CCRF-CEM/Taxol” value (CCRF-CEM/Taxol) was 2.2 x.
In the case of `Cc1cccc2c(Nc3cc(CO)cc(NC(=O)Nc4ccc(N(CCCl)CCCl)cc4)c3)c3ccccc3nc12` [BO-1050, 1-{4-[bis(2-chloroethyl)amino]phenyl}-3-[3-hydroxymethyl-5-(4-methylacridin-9-ylamino)phenyl]urea], the “Tumor remission achieved” value [2] is reported as “CR in parts of the mice”, the log cell kill [2] is reported as greater than 4.1 and the “Duration complete remission maintained without relapse” value [2] is reported as “over 70 days”. The IC50 [1, 6] was 30 nM, the IC50 [4, 7] was 128 nM and the “fold of cross-resistant, CCRF-CEM/Taxol” value (CCRF-CEM/Taxol) was 12.8 x.
In the case of `Cc1ccc(Nc2c3ccccc3nc3c(C)cccc23)cc1NC(=O)Nc1ccc(N(CCCl)CCCl)cc1` [BO-1051], the “delay in reaching maximal effect on DNA and RNA biosynthesis” value (MX-1 cells; 10 μM) is reported as “about 1 hr”, the “time to half-maximal inhibition of biosynthesis” value (MX-1 cells; 10 μM) is reported as 15 to 30 min and the “degrees of inhibiting biosynthesis of DNA and RNA, maximized” value (MX-1 cells; 10 μM) is reported as 50-80%. For the same molecule, the “persistence of inhibition of biosynthesis” value (MX-1 cells; 10 μM) was 6 to 24 h, the inhibition at 10 µM (MX-1 cells; Homo sapiens, MX1, 0.5 h, after initial activation within the first 30 min, read-out: protein synthesis: moderate inhibition following initial activation) was roughly 20% and the “Tumor remission achieved” value [2] was “complete tumor remission”. For the same molecule, the log cell kill [2] was greater than 4.1, the “Duration complete remission maintained without relapse” value [2] was “over 70 days” and the tumor-growth suppression ([5]; 100 mg/kg, Q2D×5, i.v.-injection, n=3) was “complete tumor-growth suppression”. For the same molecule, the “tumor size as % of original tumor size” value ([5]; 100 mg/kg, Q2D×5, n=3, one cycle, observed 10 and 12 days after last dose on Day 16) was 18%, the “therapeutic effect compared with cyclophosphamide” value ([5]; BO-1049 150, BO-1051 100, BO-1055 30 mg/kg vs cyclophosphamide 80 mg/kg, all Q2D×5, parallel study) was “superior therapeutic effects than cyclophosphamide” and the IC50 [1, 6] was 74 nM. The IC50 [4, 7] was 174 nM.
`Cc1ccc(NC(=O)Nc2ccc(N(CCCl)CCCl)cc2)cc1Nc1c2cccc(C)c2nc2c(C(=O)NCCN(C)C)cccc12` [BO-1053, 9-[5-(3-{4-[Bis(2-chloroethyl)amino]phenyl}ureido)-2-methylphenylamino]-5-methylacridine-4-carboxylic acid (2-dimethylaminoethyl)amide] was tested, and the “Remark (tolerability of dose)” value ([2]; 70 mg/kg, Q2D × 5, i.v.) was “Too high dose”, the “Tumor remission achieved” value [2] was “complete tumor remission” and the IC50 [1, 8] was 12 nM. The “fold of cross-resistant, CCRF-CEM/Taxol” value (CCRF-CEM/Taxol) was 15.3 x.
`CCOC(=O)Nc1cc(COC(=O)Nc2ccc(N(CCCl)CCCl)cc2)cc(Nc2c3ccccc3nc3ccccc23)c1` [BO-1054, (3-(Acridin-9-ylamino)-5-{4-[bis(2-chloroethyl)amino]phenylcarbamoyloxymethyl}-phenyl)carbamic acid ethyl ester] was tested, and the IC50 [1, 8] was 84 nM, the IC50 ([4]; read-out: IC50 MX-1, SRB assay, 72-hr incubation) was 605 nM and the IC50 ([3]; read-out: IC50 HCT-116, SRB assay, 72-hr incubation) was 757 nM.
In the case of `O=C(Nc1cc(CO)cc(Nc2c3ccccc3nc3ccccc23)c1)Oc1ccc(N(CCCl)CCCl)cc1` [BO-1062, [3-(Acridin-9-ylamino)-5-hydroxymethylphenyl]carbamic acid 4-[bis(2-chloro-ethyl)amino]phenyl ester], the “Tumor remission achieved” value [2] is reported as “complete tumor remission”, the IC50 [1, 6] is reported as 57 nM and the IC50 (CCRF-CEM/Taxol) is reported as 112 nM. The “fold of cross-resistant, CCRF-CEM/Taxol” value (CCRF-CEM/Taxol) was 2.0 x.
In the case of `Cc1cccc2c(Nc3cc(CO)cc(NC(=O)Oc4ccc(N(CCCl)CCCl)cc4)c3)c3ccccc3nc12` [BO-1063, [3-Hydroxymethyl-5-(4-methylacridin-9-ylamino)phenyl]carbamic acid 4-[bis(2-chloroethyl)amino]phenyl ester], the “Remark (tolerability of dose)” value ([2]; 100 mg/kg, QD × 3, i.v.) is reported as “Too high dose”, the IC50 [1, 6] is reported as 75 nM and the IC50 (CCRF-CEM/Taxol) is reported as 81 nM. The “fold of cross-resistant, CCRF-CEM/Taxol” value (CCRF-CEM/Taxol) was 1.1 x.
In the case of `Cc1ccc(Nc2c3ccccc3nc3c(C)cccc23)cc1NC(=O)Oc1ccc(N(CCCl)CCCl)cc1` [BO-1064, [2-Methyl-5-(4-methylacridin-9-ylamino)phenyl]carbamic acid 4-[bis(2-chloro-ethyl)amino]phenyl ester], the “Tumor remission achieved” value [2] is reported as “complete tumor remission”, the IC50 [1, 6] is reported as 116 nM and the “fold of cross-resistant, CCRF-CEM/Taxol” value (CCRF-CEM/Taxol) is reported as 1.4 x.
`CCOC(=O)Nc1cc(COC(=O)Oc2ccc(N(CCCl)CCCl)cc2)cc(Nc2c3ccccc3nc3ccccc23)c1` [BO-1065, Carbonic acid 3-(acridin-9-ylamino)-5-ethoxycarbonylaminobenzyl ester 4-[bis(2-chloroethyl)amino]phenyl ester] was tested, and the “Remark (tolerability of dose)” value ([2]; 100 mg/kg, QD × 3, i.v.) was “Too high dose”.
With `COc1cc(NC(=O)Oc2ccc(N(CCCl)CCCl)cc2)cc(Nc2c3ccccc3nc3ccccc23)c1` [BO-1066, [3-(Acridin-9-ylamino)-5-methoxyphenyl]carbamic acid 4-[bis(2-chloroethyl)-amino]phenyl ester] the “Tumor remission achieved” value [2] was “complete tumor remission” and the “fold of cross-resistant, CCRF-CEM/Taxol” value (CCRF-CEM/Taxol) was 1.5 x.
